From patent US7795310B2, “Methods and reagents for the treatment of metabolic disorders” (CombinatoRx, Inc., priority 2004, dated 2010)
Where a name gives a salt, the structure may show the parent alone. Read-outs that look alike come from different tables or passages of the source.

How the values were obtained:
3T3-L1 adipocytes [1] = assay: Screening assay: insulin-stimulated 14C-glucose uptake by adipocytes (Example 3; F, sF, S/N); type: cell-based, mouse
Description: These assays were conducted as follows.
(§1) Complete media, also referred to as “Prees” media, was prepared as follows. Dulbecco's Modified Eagle's Medium (DMEM) was supplemented with L-glutamine, penicillin-G and streptomycin (pen/strep), and heat-inactivated fetal bovine serum (FBS) (heat inactivated at […] for 30 minutes). Because serum can affect the growth, adherence, and differentiation of cells, any new lot of serum was first tested prior to use. Media was equilibrated in the incubator (5% CO2) until the pH was within the proper range (˜7), as indicated by the red/orange color of the indicator dye. If the media became pink (indicating a high pH), we discarded the media as basic conditions can affect cells and denature the insulin used in the differentiation medium-1 (DM1) and the differentiation medium-2 (DM2).
Differentiation media-2 (DM2) was prepared by supplementing DMEM with 10% FBS, L-glutamine, pen/strep, and insulin (120 nM).
(§2) Cell culture plates were gelatinized as follows. Gelatin (1% w/v in distilled water) was autoclaved and stored at room temperature. The bottom of each cell culture well was covered uniformly in the gelatin solution, ensuring that no bubbles were formed. This solution was removed leaving behind a thin film of gelatin. These plates were left to dry under the tissue culture hood. Plates were next washed with PBS, after which a 0.5% glutaric dialdehyde solution (glutaraldehyde in distilled water) was added to the cell culture wells. After ten minutes, wells were washed twice with DMEM containing pen-strep. Each washing step should last for approximately five minutes.
(§3) 3T3-L1 pre-adipocyte cells were split approximately every 2-3 days or upon reaching a confluence of approximately 60%. Overconfluency may affect the ability of these cells to differentiate into adipocytes.
(§4) D-(+)-glucose (“cold” glucose, not radiolabeled) was added to DPBS mix to a final concentration of 10 mM.
(§5) Lysis buffer, a mixture of a base (e.g., sodium hydroxide at a final concentration of 0.5N) and a detergent (e.g., sodium dodecyl sulphate (SDS) diluted to a final concentration of 0.1% w/v) was freshly prepared each time (within one to two hours of use). Prior to use, lysis buffer was warmed up to a temperature exceeding that of room temperature for a period of approximately 30 minutes to avoid precipitation of the buffer.
(§6) Pre-adipocyte 3T3-L1 cells were plated at a density of approximately 5000 cells/well (in black NUNC 96 well plate). These cells were differentiated into adipocytes in two separate steps. Initially, cells were cultured in differentiation medium-1 (DM1) (day 1 of adipocyte differentation) for a period of two to three days. DM1 prevents proliferation and induces the expression of adipocyte-specific genes. Cells were next cultured in differentiation medium-2 (DM2) for 3 to 4 days, after which the culture media was replaced by fresh DM2. The glucose uptake assay was performed at day 9-15 of differentiation.
Two days prior to the experiment (at day 7-13 of differentiation), DM2 was removed and replaced with fresh Prees media. Candidate compounds were added at this time, allowing an incubation period of approximately 48 hours. On the day of the experiment, cells (now at day 9 to 15 of differentiation) were serum starved for three hours in DPBS, magnesium sulfate (0.8 mM), and Hepes (10 mM) at pH ˜7. After this incubation period, fresh DPBS containing insulin (10 nM) was added to the adipocytes. Fresh DPBS without any insulin were placed on cells that served as a negative control. Following an incubation period of 25 minutes at 37° C., radioactive glucose (labeled with ^14C, at a final concentration of 0.04 mM, ˜0.26 μCi ^14C-glucose in each well) was added to the media for a period of 15 minutes at room temperature. Media was next removed and cells were washed thoroughly and lysed. Upon lysis, cells form a small, cloudy mass, detached from the well bottom.

human skeletal myoblasts = assay: Glycogen synthesis from radiolabeled glucose in skeletal myoblasts (Example 3; Xlsyz); type: cell-based
Description: In another set of experiments, human skeletal myoblasts obtained by the conditional immortalization of cells derived from a non-diabetic subject, were used to screen the effect of a multitude of compounds on glycogen synthesis. For each compound, two doses were tested in triplicate. The vehicle was used as a negative control and insulin was used as a positive control. Prior to treatment, cells were serum-starved for 12 to 18 hours in Ham's F10 medium. Cells were next incubated either with the test compounds or control for a period of two hours in serum-free media containing radiolabeled glucose, after which, glycogen synthesis was measured.

3T3-L1 adipocytes [2] = assay: Insulin-stimulated 14C-glucose uptake in differentiated adipocytes (Example 1); type: cell-based, mouse
Description: Differentiated mouse adipocytes were employed to identify combinations of agents that have the ability to increase glucose uptake upon insulin stimulation, as detected by scintillation counting of radiolabelled glucose (using, for example, the Perkin Elmer 1450 Microbeta JET reader). These assays were conducted as follows.
as §1
Differentiation media-1 (DM1) was prepared by supplementing DMEM with 10% FBS, L-glutamine, pen/strep, IBMX (375 μM), insulin (120 nM), and dexamethasone (188 nM). Differentiation media-2 (DM2) was prepared by supplementing DMEM with 10% FBS, L-glutamine, pen/strep, and insulin (120 nM).
as §2, §3, §4, §5, §6
Two days prior to the experiment (at day 7-13 of differentiation), DM2 was removed and replaced with fresh Prees media. Candidate compounds were added at this time, allowing an incubation period of approximately 48 hours. On the day of the experiment, cells (now at day 9 to 15 of differentiation) were serum starved for three hours in DPBS, magnesium sulfate (0.8 mM), and Hepes (10 mM) at pH ˜7. After this incubation period, fresh DPBS containing insulin (10 nM) was added to the adipocytes. Fresh DPBS without any insulin were placed on cells that served as a negative control. […]

[3] = insulin-stimulated 14C-glucose uptake, 3T3-L1 adipocytes, about 48 h with compound, 10 nM insulin, test concentration per compound in column CRx uM
[4] = glycogen synthesis, human skeletal myoblasts, 2 h, dose (H)
[5] = glycogen synthesis, human skeletal myoblasts, 2 h, dose (L), concentration per compound uM(L)

Molecule | CRx F (3T3-L1 adipocytes [1]; [3]) | Xlsyz F(H) (human skeletal myoblasts; [4]) | Xlsyz F(L) (human skeletal myoblasts; [5]) | also measured
CCCCC1C(=O)N(c2ccccc2)N(c2ccccc2)C1=O [Phenylbutazone] | 1.2098 | – | – | –
Inulin | 1.0249 | 1.0089 | 1.3377 | –
Cl.N [Ammonium Chloride] | – | 1.2105 | 0.8482 | CRx F (3T3-L1 adipocytes [1]): 0.8881
COc1cc([C@@H]2c3cc4c(cc3[C@@H](O[C@@H]3O[C@@H]5CO[C@@H](C)O[C@H]5[C@H](O)[C@H]3O)[C@H]3COC(=O)[C@H]23)OCO4)cc(OC)c1O [Etoposide] | 1.037 | – | – | –
Cc1cc(NS(=O)(=O)c2ccc(N)cc2)nc(C)n1 [Sulfasomidine] | 1.1803 | 1.3077 | 1.0165 | –
Cc1onc(-c2c(Cl)cccc2Cl)c1C(=O)N[C@@H]1C(=O)N2[C@@H]1SC(C)(C)[C@@H]2C(=O)O [Dicloxacillin Sodium] | 1.0042 | – | – | –
CCCCNCC(O)c1ccc(O)cc1 (stereo not drawn) [Bamethan] | 1.1895 | 1.3846 | 0.9106 | –
CC(=O)O[C@H]1C[C@H](O[C@H]2[C@@H](O)C[C@H](O[C@H]3[C@@H](O)C[C@H](O[C@H]4CC[C@@]5(C)[C@H](CC[C@@H]6[C@@H]5CC[C@]5(C)[C@@H](C7=CC(=O)OC7)CC[C@]65O)C4)O[C@@H]3C)O[C@@H]2C)O[C@H](C)[C@H]1O [Acetyldigitoxin] | 0.8077 | 1.2593 | 1.3016 | –
NC(=O)N1c2ccccc2C=Cc2ccccc21 [Carbamazepine] | 0.7464 | – | – | –
CC(C)(Oc1ccc(CCNC(=O)c2ccc(Cl)cc2)cc1)C(=O)O [Bezafibrate] | – | – | – | average fold increase in insulin-stimulated glucose uptake compared to vehicle treated control (3T3-L1 adipocytes [2]; Bezafibrate 9 μM, Cinnamic acid 0 μM, average of three biological replicates): 0.94 fold; average fold increase in insulin-stimulated glucose uptake compared to vehicle treated control (3T3-L1 adipocytes [2]; Bezafibrate 9 μM, Diflunisal 0 μM, average of four biological replicates): 1.16 fold; average fold increase in insulin-stimulated glucose uptake compared to vehicle treated control (3T3-L1 adipocytes [2]; Bezafibrate 18 μM, Cinnamic acid 0 μM, average of three biological replicates): 1.21 fold; average fold increase in insulin-stimulated glucose uptake compared to vehicle treated control (3T3-L1 adipocytes [2]; Bezafibrate 18 μM, Diflunisal 0 μM, average of four biological replicates): 1.37 fold; average fold increase in insulin-stimulated glucose uptake compared to vehicle treated control (3T3-L1 adipocytes [2]; Bezafibrate 36 μM, Cinnamic acid 0 μM, average of three biological replicates): 1.15 fold; average fold increase in insulin-stimulated glucose uptake compared to vehicle treated control (3T3-L1 adipocytes [2]; Bezafibrate 36 μM, Diflunisal 0 μM, average of four biological replicates): 1.57 fold
CC(=O)Nc1nnc(S(N)(=O)=O)s1 [Acetazolamide] | 0.8994 | – | – | –
CC(=O)Nc1ccc(O)cc1 [Acetaminophen] | 1.021 | – | – | –
O=C(O)Cc1ccccc1Nc1c(Cl)cccc1Cl [Diclofenac Sodium] | 1.3966 | – | – | –
CCS(=O)(=O)CCn1c([N+](=O)[O-])cnc1C [Tinidazole] | 1.0177 | – | – | –
[Ca+2].[Cl-].[Cl-] [Calcium Chloride] | – | – | – | Xlsyz F(H) (human skeletal myoblasts): 1.2121; Xlsyz F(L) (human skeletal myoblasts): 1.0714; CRx F (3T3-L1 adipocytes [1]): 0.7358
CCN(CC)CCCC(C)Nc1c2ccc(Cl)cc2nc2ccc(OC)cc12 (stereo not drawn) [QUINACRINE] | 1.0058 | – | – | –
c1ccc(CC2=NCCN2)cc1 [Tolazoline Hydrochloride] | 0.967 | – | – | –
C[C@H](CS)C(=O)N1CCC[C@H]1C(=O)O [Captopril] | 0.662 | – | – | –
CC(C)(C)NCC(O)c1cc(O)cc(O)c1 (stereo not drawn) [Terbutaline Sulfate] | 1.2758 | – | – | –
Invertase | 1.2175 | 0.8561 | 1.3974 | –
CCC(Cc1c(I)cc(I)c(O)c1I)C(=O)O (stereo not drawn) [Iohenoxic Acid] | 1.0641 | 1.2119 | 1.0504 | –
O=C1NC(=O)C(c2ccccc2)(c2ccccc2)N1 [PHENYTOIN] | 1.1755 | – | – | –
CCN(CC)CC#CCOC(=O)C(O)(c1ccccc1)C1CCCCC1 (stereo not drawn) [Oxybutynin Chloride] | 1.0483 | – | – | –
O=C(O)c1cc(-c2ccc(F)cc2F)ccc1O [Diflunisal, 2′,4′-difluoro-4-hydroxy-[1,1′-biphenyl]-3-carboxylic acid] | – | – | – | average fold increase in insulin-stimulated glucose uptake compared to vehicle treated control (3T3-L1 adipocytes [2]; Diflunisal 9 μM, Bezafibrate 0 μM, average of four biological replicates): 1.12 fold; average fold increase in insulin-stimulated glucose uptake compared to vehicle treated control (3T3-L1 adipocytes [2]; Diflunisal 18 μM, Bezafibrate 0 μM, average of four biological replicates): 1.19 fold; average fold increase in insulin-stimulated glucose uptake compared to vehicle treated control (3T3-L1 adipocytes [2]; Diflunisal 36 μM, Bezafibrate 0 μM, average of four biological replicates): 1.52 fold
C[C@H](N[C@@H](CCc1ccccc1)C(=O)O)C(=O)N1CCC[C@H]1C(=O)O [Enalaprilat] | 0.992 | 0.8333 | 1.2739 | –
Metaproterenol Hemisulfate Salt | 1.7249 | 1.1261 | 1.4052 | –
[Cl][Cu][Cl] [Cupric Chloride] | 1.3661 | 1.25 | 1.0643 | –
CCN(CC)C(=S)[S-].CCN(CC)C(=S)[S-].[Pb+2] [LEAD DIETHYLDITHIOCARBAMATE] | 1.524 | 1.2527 | 1.064 | –
O=C(O)C=Cc1ccccc1 [Cinnamic acid, 3-phenyl-2-propenoic acid] | – | – | – | average fold increase in insulin-stimulated glucose uptake compared to vehicle treated control (3T3-L1 adipocytes [2]; Cinnamic acid 3 μM, Bezafibrate 0 μM, average of three biological replicates): 0.98 fold; average fold increase in insulin-stimulated glucose uptake compared to vehicle treated control (3T3-L1 adipocytes [2]; Cinnamic acid 6 μM, Bezafibrate 0 μM, average of three biological replicates): 1.03 fold; average fold increase in insulin-stimulated glucose uptake compared to vehicle treated control (3T3-L1 adipocytes [2]; Cinnamic acid 12 μM, Bezafibrate 0 μM, average of three biological replicates): 1.10 fold
C[C@H]1O[C@@H](O[C@H]2[C@@H](O)C[C@H](O[C@H]3[C@@H](O)C[C@H](O[C@H]4CC[C@@]5(C)[C@H](CC[C@@H]6[C@@H]5CC[C@]5(C)[C@@H](C7=CC(=O)OC7)CC[C@]65O)C4)O[C@@H]3C)O[C@@H]2C)C[C@H](O)[C@@H]1O [Digitoxin] | 0.8801 | – | – | –
